Data taken from patent US20240150345A1, “GCN2 MODULATING COMPOUNDS AND USES THEREOF” (HiberCell, Inc., priority 2021, published 2024).

Biological target: T1, GCN2 (Homo sapiens, UniProt Q9P2K8)
T1 construct: purchased Carma Biosciences (so in the source)
Assay: TR-FRET biochemical assay for inhibition of GCN2 activity
Settings: 2 nM GCN2, 100 nM GFP-eIF2α, 150 μM ATP, 1.5 hours at 25° C.
Protocol: Exemplary compounds from the above Examples were tested for ability to inhibit GCN2 activity using a time resolved fluorescence energy transfer (TR-FRET) assay. Assay procedures and results are described below for Examples 12-105.
GCN2 protein was obtained from Carma Biosciences (cat #05-153). The protein was diluted in assay buffer (ThermoFisher Scientific, #PV6135), 2 mM dithiothreitol (DTT), to obtain a final concentration of 2 nM and 5 μL was plated in a 384-well white assay plate. Test compounds were serially diluted to 11 concentrations by 3-fold dilution in DMS0 and 10 nL of stock was plated into 384 well white assay plate. DMS0 was used as a vehicle control. GFP-eIF2α protein was obtained from ThermoFisher (cat #PV4809). The protein was diluted in assay buffer to a 2× concentration of 200 nM along with 300 μM ATP (final concentration of 100 nM GFP-eIF2α and 150 μM ATP) in the presence of 2 mM DTT and a […] was added to each well containing the GCN2 protein and test compound. The plate was incubated in the dark at 25° C. for 1.5 hours, shaking at 1250 rpm. Tb-anti P-eIF2α (ThermoFisher cat #PV4815) was diluted to a to a concentration of 1 nM in TR-FRET Dilution Buffer (ThermoFisher cat #PV3574). 10 μL of the Tb-anti P-eIF2a solution was added to the TR-FRET reaction. The plate was incubated in the dark for 2 h at 25° C. shaking at 600 rpm. The FRET signal from the plate was read on a Envision (PerkinElmer) plate reader: • Label 1: Excitation: 340 nm, bandwidth 30 nm; Emission: 495 nm, bandwidth 10 nm. Lag time: 100 μsec. Integration time: 400 μsec. Flashes: 30. • Label 2: Excitation: 340 nm, bandwidth 30 nm; Emission: 520 nm, bandwidth 25 nm. Lag time: 100 μsec. Integration time: 400 μsec. Flashes: 30
The data were analyzed using GraphPad Prism employing a 4-parameter sigmoidal curve fit.

T1 sequence (Q9P2K8 whole entry): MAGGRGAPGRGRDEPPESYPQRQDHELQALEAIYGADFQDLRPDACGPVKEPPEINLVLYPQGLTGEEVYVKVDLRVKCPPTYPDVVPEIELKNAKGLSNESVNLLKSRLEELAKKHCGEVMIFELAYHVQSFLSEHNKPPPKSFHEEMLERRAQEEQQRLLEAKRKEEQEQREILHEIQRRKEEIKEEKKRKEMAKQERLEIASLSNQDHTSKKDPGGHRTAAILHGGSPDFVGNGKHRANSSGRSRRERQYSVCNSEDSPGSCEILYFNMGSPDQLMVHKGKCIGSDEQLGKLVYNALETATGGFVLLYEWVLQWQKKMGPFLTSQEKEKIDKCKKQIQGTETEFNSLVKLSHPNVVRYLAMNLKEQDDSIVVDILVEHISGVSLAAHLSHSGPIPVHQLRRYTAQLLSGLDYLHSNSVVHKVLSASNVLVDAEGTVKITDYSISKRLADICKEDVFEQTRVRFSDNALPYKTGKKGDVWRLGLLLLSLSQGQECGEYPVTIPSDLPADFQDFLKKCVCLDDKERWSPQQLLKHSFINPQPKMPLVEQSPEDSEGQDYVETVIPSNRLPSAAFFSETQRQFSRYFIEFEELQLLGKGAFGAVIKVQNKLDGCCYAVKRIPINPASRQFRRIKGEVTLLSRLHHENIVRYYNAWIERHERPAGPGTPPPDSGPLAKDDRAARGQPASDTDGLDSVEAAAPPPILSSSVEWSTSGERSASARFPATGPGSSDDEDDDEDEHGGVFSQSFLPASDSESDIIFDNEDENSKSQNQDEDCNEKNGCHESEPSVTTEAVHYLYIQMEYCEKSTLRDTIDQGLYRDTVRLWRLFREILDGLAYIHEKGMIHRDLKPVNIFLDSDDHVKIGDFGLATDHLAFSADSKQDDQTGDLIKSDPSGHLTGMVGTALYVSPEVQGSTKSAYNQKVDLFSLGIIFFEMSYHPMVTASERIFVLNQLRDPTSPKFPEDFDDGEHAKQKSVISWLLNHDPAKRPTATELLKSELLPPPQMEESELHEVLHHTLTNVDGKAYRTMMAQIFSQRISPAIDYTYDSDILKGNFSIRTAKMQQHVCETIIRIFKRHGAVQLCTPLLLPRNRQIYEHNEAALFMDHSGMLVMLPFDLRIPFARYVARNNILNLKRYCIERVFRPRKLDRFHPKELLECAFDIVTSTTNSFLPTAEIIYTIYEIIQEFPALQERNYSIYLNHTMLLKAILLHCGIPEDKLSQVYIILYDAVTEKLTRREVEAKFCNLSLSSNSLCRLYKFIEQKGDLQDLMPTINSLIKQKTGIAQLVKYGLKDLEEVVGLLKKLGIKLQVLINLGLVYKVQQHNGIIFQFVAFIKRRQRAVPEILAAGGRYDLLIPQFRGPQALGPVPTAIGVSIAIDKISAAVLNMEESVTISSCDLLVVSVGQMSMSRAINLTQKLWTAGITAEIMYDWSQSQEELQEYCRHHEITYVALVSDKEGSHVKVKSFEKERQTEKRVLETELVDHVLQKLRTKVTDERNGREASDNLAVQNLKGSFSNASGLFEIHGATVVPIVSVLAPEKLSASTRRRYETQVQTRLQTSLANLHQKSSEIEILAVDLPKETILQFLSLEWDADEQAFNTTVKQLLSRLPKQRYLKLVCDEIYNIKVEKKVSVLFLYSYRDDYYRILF

Row | SMILES | IC50
1 | COc1ncc(Cl)cc1S(=O)(=O)Nc1ccc(F)c(COc2cnc3[nH]nc(C(C)C)c3c2)c1F [Compound 53, 5-chloro-N-[2,4-difluoro-3-[([3-isopropyl-1H-pyrazolo[3,4-b]pyridin-5-yl]oxy)methyl]phenyl]-2-methoxypyridine-3-sulfonamide] | < 50 nM
2 | Cc1ncc(F)cc1S(=O)(=O)Nc1ccc(F)c(COc2cnc3[nH]nc(C(C)C)c3c2)c1F [Compound 54, N-[2,4-difluoro-3-[([3-isopropyl-1H-pyrazolo[3,4-b]pyridin-5-yl]oxy)methyl]phenyl]-5-fluoro-2-methylpyridine-3-sulfonamide] | < 50 nM
3 | COc1ncc(C#N)cc1S(=O)(=O)Nc1ccc(F)c(COc2cnc3[nH]nc(C(C)C)c3c2)c1F [Compound 55, 5-cyano-N-[2,4-difluoro-3-[([3-isopropyl-1H-pyrazolo[3,4-b]pyridin-5-yl]oxy)methyl]phenyl]-2-methoxypyridine-3-sulfonamide] | 50 to 500 nM
4 | COc1ncc(F)cc1S(=O)(=O)Nc1ncc(F)c(COc2cnc3[nH]nc(C)c3c2)c1F [Compound 56, N-[3,5-difluoro-4-[([3-methyl-1H-pyrazolo[3,4-b]pyridin-5-yl]oxy)methyl]pyridin-2-yl]-5-fluoro-2-methoxypyridine-3-sulfonamide] | < 50 nM
5 | COc1ncc(F)cc1S(=O)(=O)Nc1ccc(F)c(NCc2cnc3[nH]nc(C)c3c2)c1F [Compound 57, N-[2,4-difluoro-3-[([3-methyl-1H-pyrazolo[3,4-b]pyridin-5-yl]methyl)amino]phenyl]-5-fluoro-2-methoxypyridine-3-sulfonamide] | 50 to 500 nM
6 | COc1ncc(Cl)cc1S(=O)(=O)Nc1ccc(F)c(NCc2cnc3[nH]nc(C)c3c2)c1F [Compound 58, 5-chloro-N-[2,4-difluoro-3-[([3-methyl-1H-pyrazolo[3,4-b]pyridin-5-yl]methyl)amino]phenyl]-2-methoxypyridine-3-sulfonamide] | < 50 nM
7 | Cc1ncc(F)cc1S(=O)(=O)Nc1ccc(F)c(NCc2cnc3[nH]nc(C)c3c2)c1F [Compound 59, N-[2,4-difluoro-3-[([3-methyl-1H-pyrazolo[3,4-b]pyridin-5-yl]methyl)amino]phenyl]-5-fluoro-2-methylpyridine-3-sulfonamide] | 50 to 500 nM
8 | COc1ncc(Cl)cc1S(=O)(=O)Nc1ccc(F)c(COc2cnn3cncc3c2)c1F [Compound 60, 5-chloro-N-(2,4-difluoro-3-((imidazo[1,5-b]pyridazin-3-yloxy)methyl)phenyl)-2-methoxypyridine-3-sulfonamide] | < 50 nM
9 | COc1ncc(F)cc1S(=O)(=O)Nc1ccc(F)c(COc2cnc3[nH]nc(C)c3c2)c1Cl [Compound 61, N-[2-chloro-4-fluoro-3-[([3-methyl-1H-pyrazolo[3,4-b]pyridin-5-yl]oxy)methyl]phenyl]-5-fluoro-2-methoxypyridine-3-sulfonamide] | < 50 nM
10 | COc1ncc(F)cc1S(=O)(=O)Nc1ccc(F)c(COc2cnc3[nH]nc(C)c3c2)c1C#N [Compound 62, N-[2-cyano-4-fluoro-3-[([3-methyl-1H-pyrazolo[3,4-b]pyridin-5-yl]oxy)methyl]phenyl]-5-fluoro-2-methoxypyridine-3-sulfonamide] | 50 to 500 nM
11 | COc1ncc(F)cc1S(=O)(=O)Nc1ccnc(COc2cnc3[nH]nc(C)c3c2)c1F [Compound 63, 5-fluoro-N-[3-fluoro-2-[([3-methyl-1H-pyrazolo[3,4-b]pyridin-5-yl]oxy)methyl]pyridin-4-yl]-2-methoxypyridine-3-sulfonamide] | 50 to 500 nM
12 | COc1ncc(Cl)cc1S(=O)(=O)Nc1ccnc(COc2cnc3[nH]nc(C)c3c2)c1F [Compound 64, 5-chloro-N-[3-fluoro-2-[([3-methyl-1H-pyrazolo[3,4-b]pyridin-5-yl]oxy)methyl]pyridin-4-yl]-2-methoxypyridine-3-sulfonamide] | < 50 nM
13 | COc1ncc(Cl)cc1S(=O)(=O)Nc1ncc(F)c(COc2cnc3[nH]nc(C)c3c2)c1F [Compound 65, 5-chloro-N-[3,5-difluoro-4-[([3-methyl-1H-pyrazolo[3,4-b]pyridin-5-yl]oxy)methyl]pyridin-2-yl]-2-methoxypyridine-3-sulfonamide] | < 50 nM
14 | COc1ncc(F)cc1S(=O)(=O)Nc1ncc(F)c(COc2cnc3[nH]nc(C)c3c2)c1Cl [Compound 66, N-[3-chloro-5-fluoro-4-[([3-methyl-1H-pyrazolo[3,4-b]pyridin-5-yl]oxy)methyl]pyridin-2-yl]-5-fluoro-2-methoxypyridine-3-sulfonamide] | < 50 nM
15 | COc1ncc(F)cc1S(=O)(=O)Nc1ccc(F)c(COc2cnc3[nH]nc(C)c3c2)n1 [Compound 67, 5-fluoro-N-[5-fluoro-6-[([3-methyl-1H-pyrazolo[3,4-b]pyridin-5-yl]oxy)methyl]pyridine-2-yl]-2-methoxypyridine-3-sulfonamide] | > 1000 nM
16 | COc1ncc(Cl)cc1S(=O)(=O)Nc1ccc(F)c(COc2cnc3[nH]nc(C)c3c2)n1 [Compound 68, 5-chloro-N-[5-fluoro-6-[([3-methyl-1H-pyrazolo[3,4-b]pyridin-5-yl]oxy)methyl]pyridin-2-yl]-2-methoxypyridine-3-sulfonamide] | 50 to 500 nM
17 | C#Cc1n[nH]c2ncc(OCc3c(F)ccc(NS(=O)(=O)c4cc(F)cnc4OC)c3F)cc12 [Compound 69, N-[3-[([3-ethynyl-1H-pyrazolo[3,4-b]pyridin-5-yl]oxy)methyl]-2,4-difluorophenyl]-5-fluoro-2-methoxypyridine-3-sulfonamide] | < 50 nM
18 | COc1ncc(F)cc1S(=O)(=O)Nc1ccc(F)c(COc2cnc3[nH]nc(C4CC4)c3c2)c1F [Compound 70, N-(3-(((3-cyclopropyl-1H-pyrazolo[3,4-b]pyridin-5-yl)oxy)methyl)-2,4-difluorophenyl)-5-fluoro-2-methoxypyridine-3-sulfonamide] | < 50 nM
19 | COc1ncc(F)cc1S(=O)(=O)Nc1ccc(F)c(COc2cnc3[nH]c(=O)n(C)c3c2)c1F [Compound 71, N-[2,4-difluoro-3-[([1-methyl-2-oxo-3H-imidazo[4,5-b]pyridin-6-yl]oxy)methyl]phenyl]-5-fluoro-2-methoxypyridine-3-sulfonamide] | < 50 nM
20 | COc1ncc(F)cc1S(=O)(=O)Nc1ccc(F)c(COc2cnc3c(c2)C2(CC2)C(=O)N3)c1F [Compound 72, N-[2,4-difluoro-3-([2-oxo-1H-spiro[cyclopropane-1,3-pyrrolo[2,3-b]pyridin]-5-yloxy]methyl)phenyl]-5-fluoro-2-methoxypyridine-3-sulfonamide] | < 50 nM
21 | COc1ncc(F)cc1S(=O)(=O)Nc1ccc(F)c(COc2cnc3[nH]nc(C#N)c3c2)c1F [Compound 73, N-(3-(((3-cyano-1H-pyrazolo[3,4-b]pyridin-5-yl)oxy)methyl)-2,4-difluorophenyl)-5-fluoro-2-methoxypyridine-3-sulfonamide] | < 50 nM
22 | Cc1ncc(F)cc1S(=O)(=O)Nc1ccc(F)c(COc2cnc3[nH]nc(C)c3c2)c1Cl [Compound 74, N-[2-chloro-4-fluoro-3-[([3-methyl-1H-pyrazolo[3,4-b]pyridin-5-yl]oxy)methyl]phenyl]-5-fluoro-2-methylpyridine-3-sulfonamide] | < 50 nM
23 | COc1ncc(F)cc1S(=O)(=O)Nc1ccc(F)c(COc2cnc3[nH]nc(CC(F)F)c3c2)c1F [Compound 75, N-[3-([[3-(2,2-difluoroethyl)-1H-pyrazolo[3,4-b]pyridin-5-yl]oxy]methyl)-2,4-difluorophenyl]-5-fluoro-2-methoxypyridine-3-sulfonamide] | < 50 nM
24 | COc1ncc(F)cc1S(=O)(=O)Nc1ccc(F)c(COc2cnc3[nH]nc(CCF)c3c2)c1F [Compound 76, N-[2,4-difluoro-3-([[3-(2-fluoroethyl)-1H-pyrazolo[3,4-b]pyridin-5-yl]oxy]methyl)phenyl]-5-fluoro-2-methoxypyridine-3-sulfonamide] | < 50 nM
25 | Cc1ncc(F)cc1S(=O)(=O)Nc1ccc(Cl)c(COc2cnc3[nH]nc(C)c3c2)c1F [Compound 77, N-(4-chloro-2-fluoro-3-(((3-methyl-1H-pyrazolo[3,4-b]pyridin-5-yl)oxy)methyl)phenyl)-5-fluoro-2-methylpyridine-3-sulfonamide] | < 50 nM
26 | COc1ncc(F)cc1S(=O)(=O)Nc1ccc(Cl)c(COc2cnc3[nH]nc(C)c3c2)c1F [Compound 78, N-(4-chloro-2-fluoro-3-(((3-methyl-1H-pyrazolo[3,4-b]pyridin-5-yl)oxy)methyl)phenyl)-5-fluoro-2-methoxypyridine-3-sulfonamide] | < 50 nM
27 | COc1ncc(Cl)cc1S(=O)(=O)Nc1ncc(F)c(COc2cnc3[nH]nc(C)c3c2)c1Cl [Compound 79, 5-chloro-N-[3-chloro-5-fluoro-4-[([3-methyl-1H-pyrazolo[3,4-b]pyridin-5-yl]oxy)methyl]pyridin-2-yl]-2-methoxypyridine-3-sulfonamide] | < 50 nM
